Values of other authors, collected in patent EP0387265B1, “USE OF 5-AMINOSALICYCLIC ACID (5-ASA) FOR THE PRODUCTION OF A PHARMACEUTICAL PREPARATION FOR USE IN REPERFUSION TREATMENT” (priority 1987, dated 1989).
Where two headings read alike, the source gives them in different places.

Assays:
colitis ulcerosa = conditions: in vivo
[1] = 100 or 250 mg intravenously, 6 normal test humans
[2] = 250 mg intravenously, humans having normal coagulation
[3] = system: reperfusion ischemic injury in the gastric mucosa; conditions: rats
[4] = rats
[5] = capable of neutralizing the toxic properties of the free radicals of oxygen; 'in contrast to' means not a radical scavenger
[6] = in vivo
[7] = humans, moderate doses
[8] = system: acute myocardial ischemia and reperfusion injuries; conditions: dogs; MPG together with neutrophilic antiserum; compared to a control group which received non-immune serum

O=C([O-])c1ccccc1O.[Na+] [sodium salicylate]
effect against colitis ulcerosa (colitis ulcerosa): no effect

Nc1ccc(O)c(C(=O)O)c1 [5-ASA, 5-aminosalicylic acid]
distribution volume [1]: 0.4 L/kg
half-life [1]: 35 min
effect of fibrinolysis [2]: has not been found to result in any effect
effect of the thrombocyte function [2]: has not been found to result in any effect
protection against reperfusion ischemic injury in the gastric mucosa [3]: offers protection
nephrotoxic effect [4]: nephrotoxic effect has been demonstrated
radical scavenger [5]: is a radical scavenger
side effects [6]: No side effects have been observed which can be related to the substance with certainty
nephrotoxic effect [7]: does not have any noticeable nephrotoxic effect

Nc1ccc(S(=O)(=O)Nc2ccccn2)cc1 [sulfapyridine]
protection against reperfusion ischemic injury in the gastric mucosa [3]: not

CC(S)C(=O)NCC(=O)O (stereo not shown) [MPG, N-2-mercaptopropionyl glycine]
reduced the infarct size [8]: 63%

CC(=O)Oc1ccccc1C(=O)O [acetylsalicylic acid]
effect against colitis ulcerosa (colitis ulcerosa): no effect
